The text below walks through data of ChEMBL document CHEMBL1149159, “Structure-activity relationship of purine ribonucleosides for inhibition of hepatitis C virus RNA-dependent RNA polymerase” (J Med Chem, 2004).

Where only a bound is given, the exact number is not on record here.

Usually IC50 stands for the midpoint of a concentration-inhibition curve. The low end stands for higher potency, the high end for lower potency.

In the assay the target is RNA-directed RNA polymerase (Hepacivirus hominis, UniProt O39930). The experiment in a line: Inhibition HCV NS5B-mediated RNA synthesis. The format is functional.
Chain of RNA-directed RNA polymerase (O39930 whole entry): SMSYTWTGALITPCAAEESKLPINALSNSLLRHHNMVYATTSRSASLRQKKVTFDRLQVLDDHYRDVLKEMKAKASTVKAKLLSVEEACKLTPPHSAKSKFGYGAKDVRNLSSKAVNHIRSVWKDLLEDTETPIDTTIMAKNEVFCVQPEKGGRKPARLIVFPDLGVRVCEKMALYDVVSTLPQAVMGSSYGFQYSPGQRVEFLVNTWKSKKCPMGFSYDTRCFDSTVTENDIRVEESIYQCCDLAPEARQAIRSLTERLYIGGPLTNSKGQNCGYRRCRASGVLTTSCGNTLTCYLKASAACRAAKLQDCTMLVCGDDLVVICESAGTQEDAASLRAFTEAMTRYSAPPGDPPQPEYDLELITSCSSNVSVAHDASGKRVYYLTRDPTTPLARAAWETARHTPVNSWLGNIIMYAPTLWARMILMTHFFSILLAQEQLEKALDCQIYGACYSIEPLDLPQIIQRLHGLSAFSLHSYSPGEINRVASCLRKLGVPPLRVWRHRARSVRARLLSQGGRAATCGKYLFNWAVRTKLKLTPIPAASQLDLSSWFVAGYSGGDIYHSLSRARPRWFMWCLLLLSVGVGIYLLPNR
The compound `Nc1ncnc2c1ncn2[C@@H]1O[C@H](CO)[C@@H](O)[C@@H]1O` [VIDARABINE] had an IC50 of 50 µM.

Turning to `Nc1nc2c(ncn2[C@@H]2O[C@H](CO)C(O)[C@H]2O)c(=O)[nH]1` (single isomer, unassigned), the midpoint of inhibition, the IC50, lay at 20 µM. The compound `C[C@@]1(O)[C@H](O)[C@@H](CO)O[C@H]1n1cnc2c(N)nc(N)nc21` displayed an IC50 of 2.6 µM.

`Nc1ncnc2c1ncn2[C@@H]1O[C@H](CO)[C@@H](F)[C@H]1O`: the IC50 is 28 µM. With `C[C@@]1(O)[C@H](O)[C@@H](CO)O[C@H]1n1cnc2c(=O)[nH]cnc21` the figure was 4 µM; with `CO[C@]1(C)[C@H](O)[C@@H](CO)O[C@H]1n1cnc2c(N)ncnc21`, greater than 50 µM; with `Nc1nc2c(ncn2[C@@H]2O[C@H](CO)C[C@H]2O)c(=O)[nH]1`, 0.6 µM. As to `CO[C@@H]1[C@H](O)[C@@H](CO)O[C@H]1n1cnc2c(N)ncnc21`, the IC50 worked out at 47 µM. This IC50 lies about 78-fold higher than the previous one. Next, `C[C@]1(O)[C@H](O)[C@@H](CO)O[C@H]1n1cnc2c(N)ncnc21`: greater than 50 µM; `C[C@]1(O)[C@@H](CO)O[C@@H](n2cnc3c(N)ncnc32)[C@@H]1O`: greater than 50 µM. Regarding `C[C@@]1(O)[C@H](O)[C@@H](CO)O[C@H]1n1cnc2cnc(N)nc21`, the IC50 worked out at 46 µM.

The compound `Nc1ncnc2c1ncn2[C@@H]1O[C@H](CO)[C@@H](O)[C@H]1F` [2'-BETA-FLUORO-2',3'-DEOXYADENOSINE] showed an IC50 greater than 50 µM. `Nc1ncnc2c1ncn2[C@@H]1O[C@H](CO)C[C@H]1O` [CORDYCEPIN] came in with an IC50 of 22 µM. `CC[C@@]1(O)[C@H](O)[C@@H](CO)O[C@H]1n1cnc2c(N)ncnc21` had an IC50 greater than 50 µM. `C[C@@]1(O)[C@H](O)[C@@H](CO)O[C@H]1n1cnc2c(=O)[nH]c(N)nc21` [2'-B-METHYL-GUANOSINE] returned an IC50 of 0.13 µM.

With `C[C@@]1(O)[C@H](O)[C@@H](CO)O[C@H]1n1cnc2c(N)ncnc21`, half-maximal inhibition (IC50) required 1.9 µM. This IC50 is about 15-fold higher than that of the compound before. Next, `Nc1nc2c(ncn2[C@@H]2O[C@H](CO)[C@@H](F)[C@H]2O)c(=O)[nH]1`: 1.8 µM. The compound `CO[C@@H]1[C@H](O)[C@@H](CO)O[C@H]1n1cnc2c(=O)[nH]c(N)nc21` yielded an IC50 of 1.6 µM. `C[C@@]1(O)[C@@H](CO)O[C@@H](n2cnc3c(N)ncnc32)[C@@H]1O` came in with an IC50 greater than 50 µM.
